Molecules are shown by their SMILES.

Usually IC50 stands for the concentration that gives 50% inhibition. Lower therefore signals greater potency in that assay. As a reminder, the EC50 is the midpoint of the concentration-response curve. A low value points to higher potency in that assay.

Assay [1] is described as follows: The ionization constant (pKa) for the compound measured potentiometrically.
In assay [2] the target is T1, 5-hydroxytryptamine receptor 1D (Homo sapiens, UniProt P28221). The assay is described as follows: Displacement of [3H]5-HT from human 5-hydroxytryptamine 1D receptor expressed in CHO cells. The class given is cell-based. (In general: In a radioligand displacement assay an active substance lowers the binding of a labelled ligand.)
T1 sequence (P28221 whole entry): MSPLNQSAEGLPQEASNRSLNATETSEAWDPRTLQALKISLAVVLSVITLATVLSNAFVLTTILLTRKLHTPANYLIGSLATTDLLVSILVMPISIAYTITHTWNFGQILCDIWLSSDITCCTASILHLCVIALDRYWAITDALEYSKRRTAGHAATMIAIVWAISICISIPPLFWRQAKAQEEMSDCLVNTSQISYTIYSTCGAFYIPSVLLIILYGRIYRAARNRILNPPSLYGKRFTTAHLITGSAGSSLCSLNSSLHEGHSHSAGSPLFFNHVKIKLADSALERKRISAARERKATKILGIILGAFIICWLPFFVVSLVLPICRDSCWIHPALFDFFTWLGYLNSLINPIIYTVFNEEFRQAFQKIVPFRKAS
Assay [3] deals with Rattus norvegicus. Nature of the assay: Concentration of compound in rat plasma obtained from cardiac (systemic) blood samples following peroral administration at 3 mg/kg. Further details: dose 3 mg/kg. The class given is functional, organism-based.
Assay [4] relates to Rattus norvegicus. The assay is described as follows: Concentration of compound in rat plasma obtained from hepatic portal vein(hpv) blood samples following peroral administration at 3 mg/kg. The class given is functional, organism-based. Further details: dose 3 mg/kg.
Assay [5] concerns the target Serotonin 1 receptors; 5-HT1B & 5-HT1D (Homo sapiens) (UniProt P28222+P28221). The assay is described as follows: Relative binding to serotonin 5-HT1D and 5-HT1B receptors. The class given is protein assay.
For assay [6], the target named is T1, 5-hydroxytryptamine receptor 1D. The assay is described as follows: Agonist induced [35S]GTP-gamma-S, binding in CHO cells expressing 5-HT 1d receptor. The class given is functional, cell-based. On the technique in general: GTPγS resists hydrolysis and so accumulates on activated G proteins.
Assay [7] has the same target. The assay is described as follows: Percent efficacy relative to 5-HT treatment of CHO cells expressing 5-HT 1d receptor. The class given is functional, cell-based.

In turn, `CN(Cc1ccccc1)[C@@H]1CCN(CCCc2c[nH]c3ccc(-n4cnnc4)cc23)C[C@@H]1F` had a pKa in assay [1] of 8. Besides, the IC50 in assay [2] amounted to 13 nM. The figures for the Concentration in assay [3] and in assay [4] were 2 ng/mL and 216 ng/mL, respectively. The compound further registered a Selectivity in assay [5] of 18.
In assay [1], `FC(Cc1c[nH]c2ccc(-n3cnnc3)cc12)CN1CCC(Cc2ccccc2)CC1` (stereo unspecified) showed a pKa of 8.7. This compound displayed an IC50 in assay [2] of 0.95 nM. Moreover, in assay [6], the response was half-maximal at 11 nM (EC50). Further, the Concentration in assay [3] came to 196 ng/mL; in assay [4], 781 ng/mL. Also, the Selectivity in assay [5] worked out at 65. The compound further displayed an Efficacy in assay [7] of 61%.
On to `Fc1cccc(CCC2(F)CCN(CCCc3c[nH]c4ccc(-n5cnnc5)cc34)CC2)c1`, for which the IC50 in assay [2] came out at 0.75 nM. Moreover, in assay [6], the EC50 was 5.1 nM. In assay [5], this compound gave a Selectivity of 30. In addition, the Efficacy in assay [7] turned out to be 71%.
For the compound `OC[C@H](NC1CCN(CCCc2c[nH]c3ccc(-n4cnnc4)cc23)CC1)c1ccc(F)cc1`, the Concentration in assay [3] and in assay [4] was under 2 ng/mL each time. Moreover, the Selectivity in assay [5] was 206. The compound also yielded an Efficacy in assay [7] of 104%.
In turn, `CN(Cc1ccccc1)C1CCN(CC(F)Cc2c[nH]c3ccc(-n4cnnc4)cc23)CC1` (stereo unspecified) displayed an IC50 in assay [2] of 5.4 nM. The compound further returned an EC50 in assay [6] of 18 nM. Also, the values for the Concentration in assay [3] and in assay [4] were 2 ng/mL and 57 ng/mL, respectively. The Selectivity in assay [5] was found to be 230. In addition, the Efficacy in assay [7] was 104%.
The compound `OC[C@H](NC1CCN(CC(F)Cc2c[nH]c3ccc(-n4cnnc4)cc23)CC1)c1ccc(F)cc1` (stereo partly specified) gave an IC50 in assay [2] of 1.4 nM. Further, in assay [6], the EC50 was found to be 1.7 nM. For the same compound, the Concentration in assay [3] was under 1 ng/mL; in assay [4] it was 5 ng/mL. In addition, the Selectivity in assay [5] was found to be 225. Also, the Efficacy in assay [7] was found to be 95%.
The compound `c1ccc(CN2CCN(CCCc3c[nH]c4ccc(-n5cnnc5)cc34)CC2)cc1` came in with a pKa in assay [1] of 8.2. For the same compound, the values for the Concentration in assay [3] and in assay [4] were 42 ng/mL and 178 ng/mL, respectively. In assay [5], the Selectivity worked out at 40.
Compound `CN(Cc1ccccc1)[C@H]1CCN(CCCc2c[nH]c3ccc(-n4cnnc4)cc23)C[C@H]1F` gave an IC50 in assay [2] of 2.2 nM. The compound also showed a Selectivity in assay [5] of 6.
Consider `Fc1cccc(CCN2CCN(CCCc3c[nH]c4ccc(-n5cnnc5)cc34)CC2)c1`, for which the Selectivity in assay [5] was determined as 125.
In assay [1], `c1ccc(CC2CCN(CCCc3c[nH]c4ccc(-n5cnnc5)cc34)CC2)cc1` yielded a pKa of 9.7. The IC50 in assay [2] stood at 0.35 nM. The EC50 in assay [6] was 0.6 nM. Besides, the figures for the Concentration in assay [3] and in assay [4] were under 2 ng/mL and 25 ng/mL, respectively. In addition, the Selectivity in assay [5] worked out at 57. The Efficacy in assay [7] came to 62%.
In assay [1], `FC1(Cc2ccccc2)CCN(CCCc2c[nH]c3ccc(-n4cnnc4)cc23)CC1` displayed a pKa of 8.8. This compound came in with an IC50 in assay [2] of 1 nM. In assay [6], this compound came in with an EC50 of 0.5 nM. Besides, the Concentration in assay [3] came to 52 ng/mL; in assay [4] it was 570 ng/mL. In assay [5], the Selectivity came to 16. Moreover, the Efficacy in assay [7] came out at 58%.
As for `Fc1cccc(CCN2CCN(CC(F)Cc3c[nH]c4ccc(-n5cnnc5)cc34)CC2)c1` (stereo unspecified), the IC50 in assay [2] stood at 3.7 nM. The EC50 in assay [6] came to 4.4 nM. The Selectivity in assay [5] came to 324. This compound also had an Efficacy in assay [7] of 98%.
Turning to `CN(Cc1ccccc1)C1CCN(CCCc2c[nH]c3ccc(-n4cnnc4)cc23)CC1`, the Concentration in assay [3] is under 1 ng/mL; in assay [4], 4 ng/mL. The Selectivity in assay [5] was 66. In assay [7], this compound showed an Efficacy of 94%.

Source of the values: ChEMBL document CHEMBL1131027, “Enhancement of oral absorption in selective 5-HT1D receptor agonists: fluorinated 3-[3-(piperidin-1-yl)propyl]indoles” (J Med Chem, 1998).
